{"source": "patent US10829517B2", "about": "“Method for treating or/and preventing calcium deficiency-related diseases” (National Chung Hsing University, priority 2017, dated 2020)", "key": {"calcium ion channel V6": {"target": "T1, calcium ion channel V6 (Homo sapiens, UniProt Q9H1D0)", "T1 construct": "endogenous in cells; host or cells: Caco-2", "T1 sequence (Q9H1D0 1-765)": "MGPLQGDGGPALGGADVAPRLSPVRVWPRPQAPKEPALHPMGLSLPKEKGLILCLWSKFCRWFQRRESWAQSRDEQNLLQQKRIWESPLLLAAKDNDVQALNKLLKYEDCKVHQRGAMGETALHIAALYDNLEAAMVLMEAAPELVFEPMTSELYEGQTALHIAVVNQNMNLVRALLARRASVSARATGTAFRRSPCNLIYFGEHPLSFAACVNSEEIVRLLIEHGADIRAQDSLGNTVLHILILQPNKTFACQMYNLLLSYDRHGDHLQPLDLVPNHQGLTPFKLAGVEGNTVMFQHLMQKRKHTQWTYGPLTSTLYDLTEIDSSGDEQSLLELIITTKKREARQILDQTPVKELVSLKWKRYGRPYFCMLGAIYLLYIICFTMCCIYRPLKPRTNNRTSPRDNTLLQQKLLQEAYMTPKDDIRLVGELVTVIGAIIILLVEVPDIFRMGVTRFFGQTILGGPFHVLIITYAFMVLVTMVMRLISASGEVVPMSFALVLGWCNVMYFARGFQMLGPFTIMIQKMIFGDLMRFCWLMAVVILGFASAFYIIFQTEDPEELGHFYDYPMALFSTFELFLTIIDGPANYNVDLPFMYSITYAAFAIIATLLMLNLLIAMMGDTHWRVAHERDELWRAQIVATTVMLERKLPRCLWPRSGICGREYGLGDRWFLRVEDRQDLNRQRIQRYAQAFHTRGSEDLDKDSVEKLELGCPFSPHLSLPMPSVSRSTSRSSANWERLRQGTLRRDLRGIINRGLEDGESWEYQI", "assay": "Caco-2 calcium uptake with calcium ion channel V6 inhibitor ruthenium red", "type": "cell-based", "conditions": "6 mM calcium ions, 400 μM peptide of SEQ ID No. 1", "description": "The steps were the same as those described in Example 5, except that the calcium ion channel V6 inhibitor: ruthenium red (RUR) was administered at the 154th second."}, "Caco-2 cells": {"system": "Caco-2 cells", "assay": "Calcium uptake in Fluo-3-AM loaded Caco-2 cells (fluorescence intensity)", "type": "cell-based, human", "description": "The Caco-2 cell monolayer was cultured in a 10 cm2 culture dish containing DEME medium, and the cells were separated by TrypLE (Invitrogen, Carlsbad, Calif.) and washed several times with a phosphate-free KRH (Krebs Ringer Heps) solution. 5 μL of 1 mM Fluo-3-AM dye and 20% (w/v) thermally reversible hydrogel (Pluronic F-127, RF127) solution were added at 37° C. for about 30 minutes to obtain a Caco-2 cell suspension.\nThe Caco-2 cell suspension containing Fluo-3-AM dye was thoroughly rinsed in phosphate-free KRH solution and aliquoted, each aliquot containing 5×10^7 cells. After each aliquot was pelletized, the cells were resuspended in 240 μL of the phosphate-free KRH solution, and then transferred to a 96-well plate for use."}, "[1]": {"conditions": "400 μM peptide, 6 mM calcium ions, compared with 400 μM CPP group and no-peptide group"}}, "note": "Ends that are not written are not given here.", "data": [{"molecule": "N.N.N.N.N.N.N.N.N.N.N.N.N.N.[Cl-].[Cl-].[Cl-].[Cl-].[Cl-].[Cl-].[O-2].[O-2].[Ru+3].[Ru+3].[Ru+4]", "note": "[ruthenium red]", "values": [{"measurement": "percentage decrease of peak calcium ion (peak [Ca2+]) compared to the first group", "setting": "calcium ion channel V6; ruthenium red 10 μM (second group) vs 0 μM", "result": 41.9, "unit": "%"}, {"measurement": "percentage decrease of peak calcium ion (peak [Ca2+]) compared to the first group", "setting": "calcium ion channel V6; ruthenium red 20 μM (third group) vs 0 μM", "result": 57.3, "unit": "%"}, {"measurement": "percentage decrease of peak calcium ion (peak [Ca2+]) compared to the first group", "setting": "calcium ion channel V6; ruthenium red 50 μM (fourth group) vs 0 μM", "result": 72.0, "unit": "%"}, {"measurement": "percentage decrease of peak calcium ion (peak [Ca2+]) compared to the first group", "setting": "calcium ion channel V6; ruthenium red 100 μM (fifth group) vs 0 μM", "result": 86.7, "unit": "%"}]}, {"molecule": "TEVPAINTIASAEPTVH [SEQ ID No. 1]", "values": [{"measurement": "calcium ion concentration (peak [Ca2+]) in Caco-2 cells", "setting": "Caco-2 cells; [1]", "result": "significantly increased"}, {"measurement": "fluorescence intensity in Caco-2 cells", "setting": "Caco-2 cells; [1]", "result": "significantly higher"}, {"measurement": "fluorescence intensity in Caco-2 cells", "setting": "Caco-2 cells; at the 442th second, 0 mM calcium ions (first group), 400 μM peptide", "result": "7,059,148"}, {"measurement": "fluorescence intensity in Caco-2 cells", "setting": "Caco-2 cells; at the 442th second, 0.3 mM calcium ions (second group), 400 μM peptide", "result": "9,780,517"}, {"measurement": "fluorescence intensity in Caco-2 cells", "setting": "Caco-2 cells; at the 442th second, 0.5 mM calcium ions (third group), 400 μM peptide", "result": "9,720,348"}, {"measurement": "fluorescence intensity in Caco-2 cells", "setting": "Caco-2 cells; at the 442th second, 1.5 mM calcium ions (fourth group), 400 μM peptide", "result": "10,604,175"}, {"measurement": "fluorescence intensity in Caco-2 cells", "setting": "Caco-2 cells; at the 442th second, 3 mM calcium ions (fifth group), 400 μM peptide", "result": "10,986,171"}, {"measurement": "fluorescence intensity in Caco-2 cells", "setting": "Caco-2 cells; at the 442th second, 6 mM calcium ions (sixth group), 400 μM peptide", "result": "10,912,015"}]}, {"molecule": "SEQ ID No. 2: peptide of SEQ ID No. 1 with the C-terminal 5 amino acids removed (TEVPAINTIASA)", "values": [{"measurement": "calcium-absorption promotion ability", "setting": "Caco-2 cells; Example 17, FIG. 36, Caco-2 cells", "result": "have the ability to promote calcium absorption"}]}]}
